Values after ≈ are worked out from the molar mass of the structure shown.
Tests used:
Assay in all cases: in vitro antibacterial evaluation, MIC by broth dilution
Type in all cases: cell-based
Details in all cases: broth dilution, 18 hours at 35° C.
Streptococcus sp. = test system: Streptococcus sp.
Procedure: (§1) Methods for in vitro Antibacterial Evaluation (Table 1)
(§2) The minimum inhibitory concentration (MIC), the lowest concentration of the antibiotic which inhibits growth of the test organism, is determined by the broth dilution method using Muller-Hinton II […] (Baltimore Biological Laboratories) following the recommendations of the National Committee for Clinical Laboratory Standards [Methods for dilution antimicrobial susceptibility tests for bacteria that grow aerobically, approved standard M7-A2, National Committee for Clinical Laboratory Standards, Villanova, Pa.].
(§3) An inoculum level of 5×10^5 CFU/mL, and a range of antibiotic concentrations (64-0.06 μg/mL) is used. […] The test organisms include a spectrum of Gram-positive bacteria comprised of Staphylococcus sp., Streptococcus sp. and Enterococcus sp. These organisms include recent clinical isolates that are resistant to methicillin, penicillin and/or vancomycin.

Staphylococcus sp. = test system: Staphylococcus sp.
Procedure: as §1, §2, §3

Enterococcus sp. = test system: Enterococcus sp.
Procedure: as §1, §2, §3

Escherichia coli = test system: Escherichia coli
Outline: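 Broth dilution MIC per NCCLS M7-A2 in Mueller-Hinton II medium, inoculum 5×10^5 CFU/mL, antibiotic range 64-0.06 μg/mL. MIC taken as lowest concentration inhibiting growth.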

MIC Streptococcus pneumoniae (ATCC 6301) (Streptococcus sp.; strain ATCC 6301): >128 µg/mL
MIC Streptococcus pneumoniae (GC 1894) (Streptococcus sp.; strain GC 1894): 128 µg/mL (≈ 102 µM)
MIC Streptococcus pyogenes (GC 4563) (Streptococcus sp.; strain GC 4563): 128 µg/mL (≈ 102 µM)
MIC Streptococcus agalactiae (GC 4564) (Streptococcus sp.; strain GC 4564): >128 µg/mL
MIC Streptococcus pneumoniae (GC 4565) (Streptococcus sp.; strain GC 4565): >128 µg/mL
MIC Staphylococcus aureus (ATCC 29213) (Staphylococcus sp.; strain ATCC 29213): >128 µg/mL
MIC Staphylococcus aureus (GC 1131) (Staphylococcus sp.; strain GC 1131): >128 µg/mL
MIC Staphylococcus aureus (GC 3051) (Staphylococcus sp.; strain GC 3051): >128 µg/mL
MIC Staphylococcus aureus (GC 3053) (Staphylococcus sp.; strain GC 3053): >128 µg/mL
MIC Staphylococcus aureus (GC 4541) (Staphylococcus sp.; strain GC 4541): >128 µg/mL
MIC Staphylococcus aureus (GC 4542) (Staphylococcus sp.; strain GC 4542): >128 µg/mL
MIC Staphylococcus aureus-SMITH (GC 4543) (Staphylococcus sp.; strain GC 4543): >128 µg/mL
MIC Staphylococcus aureus (GC 4544) (Staphylococcus sp.; strain GC 4544): >128 µg/mL
MIC Staphylococcus aureus (GC 4545) (Staphylococcus sp.; strain GC 4545): >128 µg/mL
MIC Coagulase Negative Staphylococcus (GC 4547) (Staphylococcus sp.; strain GC 4547): 64 µg/mL (≈ 51.2 µM)
MIC Coagulase Negative Staphylococcus (GC 4548) (Staphylococcus sp.; strain GC 4548): 128 µg/mL (≈ 102 µM)
MIC Coagulase Negative Staphylococcus (GC 4549) (Staphylococcus sp.; strain GC 4549): 64 µg/mL (≈ 51.2 µM)
MIC Coagulase Negative Staphylococcus (GC 4551) (Staphylococcus sp.; strain GC 4551): >128 µg/mL
MIC Coagulase Negative Staphylococcus (GC 6257) (Staphylococcus sp.; strain GC 6257): 64 µg/mL (≈ 51.2 µM)
MIC Enterococcus faecalis (ATCC 29212) (Enterococcus sp.; strain ATCC 29212): >128 µg/mL
MIC Enterococcus faecalis (GC 2242) (Enterococcus sp.; strain GC 2242): >128 µg/mL
MIC Enterococcus faecium (GC 2243) (Enterococcus sp.; strain GC 2243): >128 µg/mL
MIC Enterococcus faecalis (GC 2691) (Enterococcus sp.; strain GC 2691): >128 µg/mL
MIC Enterococcus faecalis (GC 3059) (Enterococcus sp.; strain GC 3059): >128 µg/mL
MIC Enterococcus faecalis (GC 4552) (Enterococcus sp.; strain GC 4552): >128 µg/mL
MIC Enterococcus faecalis (GC 4553) (Enterococcus sp.; strain GC 4553): 128 µg/mL (≈ 102 µM)
MIC Enterococcus faecalis (GC 4554) (Enterococcus sp.; strain GC 4554): >128 µg/mL
MIC Enterococcus faecium (GC 4556) (Enterococcus sp.; strain GC 4556): >128 µg/mL
MIC Enterococcus faecium (GC 4557) (Enterococcus sp.; strain GC 4557): 128 µg/mL (≈ 102 µM)
MIC Enterococcus avium (GC 4558) (Enterococcus sp.; strain GC 4558): 128 µg/mL (≈ 102 µM)
MIC Enterococcus faecalis (GC 6189) (Enterococcus sp.; strain GC 6189): >128 µg/mL
MIC Escherichia coli (ATCC 25922) (Escherichia coli; strain ATCC 25922): >128 µg/mL
MIC Escherichia coli (GC 4559) (Escherichia coli; strain GC 4559): 128 µg/mL (≈ 102 µM)
MIC Escherichia coli (GC 4560) (Escherichia coli; strain GC 4560): 64 µg/mL (≈ 51.2 µM)
Structure (SMILES): CC(c1ccccc1)C1NC(=O)CNC(=O)C(CO)NC(=O)C(C(O)C2CNC(=N)N2C2OC(CO)C(O)C(O)C2O)NC(=O)C(C(O)C2CNC(=N)N2)NC(=O)C(Cc2ccc3oc(-c4ccccc4OC4OC(CO)C(O)C(O)C4O)nc3c2)NC1=O (stereo not drawn) [Example 36, Cyclo[3-[2-[2-(hexopyranosyloxy)phenyl]-1,3-benzoxazol-5-yl]alanyl-3-(2-iminoimidazolidin-4-yl)seryl-3-(3-hexopyranosyl-2-iminoimidazolidin-4-yl)serylserylglycyl-β-methyl-phenylalanyl]]
MIC Staphylococcus haemolyticus (GC 4546) (Staphylococcus sp.; strain GC 4546): 64 µg/mL (≈ 51.2 µM)

Reference: patent US6914045B2, “Glycopeptide antibiotics” (Wyeth Holdings Corporation, priority 2001, dated 2005)
